This note sets out measurements from BindingDB's records for doi:10.1038/sj.bjp.0701367 (Kyoto University, 1997).

In assay [1] the target is T1, Prostaglandin E2 receptor EP1 subtype (Mus musculus, UniProt P35375).
T1 sequence (P35375 whole entry): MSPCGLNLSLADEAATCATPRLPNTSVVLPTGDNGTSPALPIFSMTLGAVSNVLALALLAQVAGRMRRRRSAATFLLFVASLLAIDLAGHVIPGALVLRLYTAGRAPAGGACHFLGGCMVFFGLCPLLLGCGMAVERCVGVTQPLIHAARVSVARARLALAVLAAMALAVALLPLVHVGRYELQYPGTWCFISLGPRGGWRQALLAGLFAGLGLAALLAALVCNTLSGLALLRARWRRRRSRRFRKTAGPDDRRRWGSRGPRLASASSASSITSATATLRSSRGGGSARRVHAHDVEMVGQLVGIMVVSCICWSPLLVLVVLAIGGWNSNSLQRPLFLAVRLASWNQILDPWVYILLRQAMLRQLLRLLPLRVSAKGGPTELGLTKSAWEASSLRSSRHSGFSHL

In assay [2] the target is Prostaglandin E2 receptor EP4 subtype (Mus musculus, UniProt P32240).
Assay [3] concerns the target Prostaglandin E2 receptor EP2 subtype (Mus musculus, UniProt Q62053).
The target in assay [4] is T2, Prostaglandin E2 receptor EP3 subtype (Mus musculus, UniProt P30557).
T2 sequence (P30557 whole entry): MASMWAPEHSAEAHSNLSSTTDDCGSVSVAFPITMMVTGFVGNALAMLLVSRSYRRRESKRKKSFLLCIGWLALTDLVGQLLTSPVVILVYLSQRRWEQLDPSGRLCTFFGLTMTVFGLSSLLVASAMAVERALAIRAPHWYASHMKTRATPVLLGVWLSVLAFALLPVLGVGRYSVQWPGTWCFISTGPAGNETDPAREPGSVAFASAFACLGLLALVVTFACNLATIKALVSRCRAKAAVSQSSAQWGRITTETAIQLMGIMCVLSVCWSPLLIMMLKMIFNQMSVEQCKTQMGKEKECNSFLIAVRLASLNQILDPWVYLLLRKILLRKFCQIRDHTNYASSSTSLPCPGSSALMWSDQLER

For another assay, the target named is Prostacyclin receptor (Mus musculus, UniProt P43252).
For assay [5], the target named is Prostaglandin F2-alpha receptor (Mus musculus, UniProt P43117).
The next assay addresses T3, Thromboxane A2 receptor (Mus musculus, UniProt P30987).
T3 sequence (P30987 whole entry): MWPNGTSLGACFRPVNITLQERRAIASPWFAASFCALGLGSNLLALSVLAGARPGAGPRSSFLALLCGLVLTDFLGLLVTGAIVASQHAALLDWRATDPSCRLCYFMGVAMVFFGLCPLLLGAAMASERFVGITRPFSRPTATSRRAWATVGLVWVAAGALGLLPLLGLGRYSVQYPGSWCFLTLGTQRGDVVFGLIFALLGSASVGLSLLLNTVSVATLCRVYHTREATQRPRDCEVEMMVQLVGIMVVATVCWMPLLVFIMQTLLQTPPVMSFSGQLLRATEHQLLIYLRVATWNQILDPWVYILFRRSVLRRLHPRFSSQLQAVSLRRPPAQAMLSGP

Prostaglandin F2-alpha receptor, sequence (P43117 whole entry): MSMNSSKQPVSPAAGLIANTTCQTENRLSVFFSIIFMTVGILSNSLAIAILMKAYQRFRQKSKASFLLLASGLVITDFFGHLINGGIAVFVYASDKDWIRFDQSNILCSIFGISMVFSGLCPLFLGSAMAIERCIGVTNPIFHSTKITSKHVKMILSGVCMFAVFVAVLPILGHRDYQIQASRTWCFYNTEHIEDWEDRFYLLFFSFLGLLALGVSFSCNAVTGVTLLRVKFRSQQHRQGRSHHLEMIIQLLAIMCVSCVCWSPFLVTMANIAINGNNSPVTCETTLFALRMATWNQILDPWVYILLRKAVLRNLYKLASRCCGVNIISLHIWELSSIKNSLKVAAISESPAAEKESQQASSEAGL
Prostaglandin E2 receptor EP2 subtype, sequence (Q62053 whole entry): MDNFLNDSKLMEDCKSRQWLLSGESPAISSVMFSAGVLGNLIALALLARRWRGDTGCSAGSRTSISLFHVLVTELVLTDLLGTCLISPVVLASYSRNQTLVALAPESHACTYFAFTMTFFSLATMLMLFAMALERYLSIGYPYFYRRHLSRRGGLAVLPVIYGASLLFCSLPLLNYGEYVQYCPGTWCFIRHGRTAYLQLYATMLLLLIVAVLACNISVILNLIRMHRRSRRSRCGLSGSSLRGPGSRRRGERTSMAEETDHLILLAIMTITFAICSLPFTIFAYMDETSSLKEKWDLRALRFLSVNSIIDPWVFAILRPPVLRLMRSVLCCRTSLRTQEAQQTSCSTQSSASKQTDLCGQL
Prostaglandin E2 receptor EP4 subtype, sequence (P32240 whole entry): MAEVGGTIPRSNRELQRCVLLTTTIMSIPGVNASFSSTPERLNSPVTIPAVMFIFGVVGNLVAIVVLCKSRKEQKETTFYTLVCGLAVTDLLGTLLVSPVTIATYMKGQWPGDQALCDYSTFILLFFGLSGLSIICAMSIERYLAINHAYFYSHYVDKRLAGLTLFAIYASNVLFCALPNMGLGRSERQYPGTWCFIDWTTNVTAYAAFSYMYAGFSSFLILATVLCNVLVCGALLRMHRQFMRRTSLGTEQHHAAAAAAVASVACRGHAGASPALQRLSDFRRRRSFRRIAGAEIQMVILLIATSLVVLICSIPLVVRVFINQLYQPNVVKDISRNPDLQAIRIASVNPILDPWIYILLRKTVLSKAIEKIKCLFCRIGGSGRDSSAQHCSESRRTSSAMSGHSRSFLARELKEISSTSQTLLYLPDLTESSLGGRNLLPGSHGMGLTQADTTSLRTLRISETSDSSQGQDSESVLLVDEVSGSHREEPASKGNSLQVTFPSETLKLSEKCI
Prostacyclin receptor, sequence (P43252 whole entry): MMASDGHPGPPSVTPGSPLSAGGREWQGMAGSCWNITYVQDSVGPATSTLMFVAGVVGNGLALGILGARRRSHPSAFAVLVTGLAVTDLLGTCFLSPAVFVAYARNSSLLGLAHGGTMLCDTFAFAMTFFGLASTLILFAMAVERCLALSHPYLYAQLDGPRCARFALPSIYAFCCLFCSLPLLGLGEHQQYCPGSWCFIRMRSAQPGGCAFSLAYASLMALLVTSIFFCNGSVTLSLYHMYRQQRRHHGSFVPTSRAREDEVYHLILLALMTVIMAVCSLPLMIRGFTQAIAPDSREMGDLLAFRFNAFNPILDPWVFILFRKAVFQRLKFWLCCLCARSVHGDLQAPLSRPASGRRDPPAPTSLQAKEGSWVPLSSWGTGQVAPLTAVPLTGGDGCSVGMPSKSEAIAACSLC

As a reminder, the Ki is a measure of affinity in units of concentration, obtained from inhibition or displacement. As to `CC#CCC(C)[C@H](O)/C=C/[C@@H]1[C@H]2C/C(=C/CCCC(=O)O)C[C@H]2C[C@H]1O` (some centres not stated), the Ki in assay [1] amounted to 21 nM; in assay [2], 2300 nM; in assay [3], 1600 nM; in assay [4] it was 22 nM; on Prostacyclin receptor it was 11 nM.

`CCCCC[C@@H](O)/C=C/[C@H]1[C@H](O)CC(=O)[C@@H]1CCCCCCC(=O)O`: the Ki in assay [1] is 36 nM; in assay [2] it was 2.1 nM; in assay [3], 10 nM; in assay [4], 1.1 nM; on Prostacyclin receptor it was 33 nM.

Take `CCCCC[C@H](O)/C=C/[C@@H]1[C@H]2C/C(=C\CCCC(=O)O)C[C@H]2C[C@H]1O`: the Ki in assay [2] came out at 2300 nM; in assay [3], 1600 nM; in assay [5], 1200 nM; in assay [4], 31 nM; on Prostacyclin receptor, 110 nM.

In the case of `CCCCC(C)(C)C(O)C=CC1C(O)CC(=O)C1CC=CCCCC(=O)O` (configuration not stated), the Ki in assay [2] worked out at 43 nM; in assay [3], 17 nM; in assay [5], 350 nM; in assay [4] it was 1.9 nM.

Compound `O=C(O)CCC/C=C\C[C@@H]1C(NS(=O)(=O)c2ccccc2)C2CC[C@@H]1C2` (single isomer, unassigned; (+)) [S 145] gave a Ki at Thromboxane A2 receptor of 0.68 nM.

Regarding `O=C(O)CCC/C=C\C[C@H]1C(=O)C[C@@H](O)[C@@H]1/C=C/[C@@H](O)CCc1ccccc1` [17-PHENYL TRINOR PROSTAGLANDIN E2], the Ki in assay [1] is 14 nM; in assay [2] it was 1000 nM; in assay [5], 60 nM; in assay [4] it was 3.7 nM.

In the case of `CCCCC[C@H](O)/C=C/C1[C@H](O)C[C@H](O)[C@@H]1C/C=C\CCCC(=O)O` (stereo partly drawn) [(Z)-7-[(1R,3R,5S)-3,5-Dihydroxy-2-((E)-(S)-3-hydroxy-oct-1-enyl)-cyclopentyl]-hept-5-enoic acid], the Ki came to 1300 nM in assay [1] and 75 nM in assay [4].

For the compound `CCCC1([C@@H](O)C/C=C/C2[C@H](O)CC(=O)[C@@H]2CCCCCCC(=O)OC)CCC1` (some centres not stated) [Butaprost (Methyl Ester)], the affinity in assay [3] corresponds to a Ki of 110 nM.

`CC(C)Oc1ccc2c(=O)c3cc(C(=O)O)ccc3oc2c1` [CAS_33458-93-4]: the affinity in assay [3] corresponds to a Ki of 350 nM.

As for `O=C(O)CCCC=CCC1C(O)CC(O)C1C=CC(O)COc1cccc(C(F)(F)F)c1` (configuration not stated) [CAS_40666-16-8], affinity in assay [5] was put at a Ki of 3.8 nM.

Consider `CCCCCC(O)CC=C1C(=O)C=CC1CC=CCCCC(=O)O` (configuration not stated) [CAS_41598-07-6], for which the Ki came out at 47 nM in assay [5] and 280 nM in assay [4].

In the case of `CS(=O)(=O)NC(=O)CCCC=CCC1C(=O)CC(O)C1C=CC(O)COc1ccccc1` (configuration not stated) [CAS_60325-46-4], the Ki in assay [1] is 21 nM; in assay [5], 580 nM; in assay [4], 0.6 nM.

Consider `O=C(O)CCCCCCC1C(=O)CCC1C=CC(O)COc1ccccc1` (configuration not stated) [CAS_80558-61-8], for which the Ki in assay [1] was found to be 120 nM; in assay [2], 500 nM; in assay [5] it was 124 nM; at Thromboxane A2 receptor it was 1300 nM; in assay [4], 0.68 nM.

As to `CCC#CCC(C)C(O)C#CC1C(O)CC2CC(=CCOCC(=O)O)CC21` (configuration not stated) [CAS_94079-80-8], the results for the Ki (in assay [3]; in assay [4]; on Prostacyclin receptor) were 1300 nM, 170 nM and 10 nM, respectively.

In the case of `CCCCCC(O)c1ccc(C2CCC(=O)C2CCCCCCC(=O)O)cc1` (configuration not stated) [CAS_132836], the Ki in assay [3] is 240 nM; in assay [4], 82 nM.

For the compound `CCCCC[C@H](O)/C=C/[C@H]1[C@H](O)CC(=O)[C@@H]1C/C=C\CCCC(=O)O` [DINOPROSTONE], the Ki in assay [1] was 20 nM; in assay [3], 12 nM; in assay [5], 100 nM; in assay [4] it was 0.85 nM.

For `O=C(O)CC/C=C\CC[C@@H]1[C@@H](N2CCCCC2)[C@@H](O)C[C@@H]1OCc1ccc(-c2ccccc2)cc1` [GR 32191], the affinity at Thromboxane A2 receptor corresponds to a Ki of 12 nM.

In the case of `O=C(O)CCC/C=C\C[C@H]1[C@@H]2CCC(O2)[C@@H]1/C=C/[C@@H](O)COc1ccc(I)cc1` [I-BOP], the Ki was found to be 220 nM in assay [3], 100 nM in assay [5], 0.56 nM on Thromboxane A2 receptor and 100 nM in assay [4].

For `CCCCC(C)(O)CC=CC1C(O)CC(=O)C1CCCCCCC(=O)OC` (configuration not stated) [MISOPROSTOL (Methyl Ester)], the Ki in assay [1] is 120 nM; in assay [2] it was 67 nM; in assay [3], 250 nM; in assay [4], 67 nM.

`CC#CCC(C)C(O)C=CC1C(O)CC2Oc3c(CCCC(=O)O)cccc3C21` (configuration not stated) [NSC_2352]: the Ki in assay [4] was found to be 110 nM; at Prostacyclin receptor, 16 nM.

As to `CC1=C(CCON=C(c2ccccc2)c2cccnc2)c2cccc(OCC(=O)O)c2CC1` [NSC_128021], the Ki amounted to 740 nM in assay [4] and 47 nM at Prostacyclin receptor.

The compound `O=C(O)CCCCCCc1c(O)[nH]c(=O)n1CCC(O)C1CCCCC1` (configuration not stated) [NSC_3080928] showed a Ki in assay [5] of 1700 nM.

Consider `O=C(CCC=CCCC1C(=O)CC(O)C1OCC(O)COc1ccccc1)Oc1ccc(NC(=O)c2ccccc2)cc1` (configuration not stated) [NSC_5311224], for which the Ki in assay [2] stood at 480 nM; in assay [4] it was 1.9 nM.

Consider `CCCCCC(O)C=CC1C(O)CC2C=C(CCCCC(=O)O)CC21` (configuration not stated) [NSC_5311244], for which the Ki is 1000 nM in assay [3], 31 nM in assay [4] and 15 nM on Prostacyclin receptor.

With `O=C(O)CCCCCCC1C(=O)CC(O)C1C=CC(O)CCCCCO` (configuration not stated) [PGE1,1-OH], the Ki in assay [2] was found to be 190 nM; in assay [4] it was 330 nM.

With `CCCCCC(O)C=CC1CCC(=O)C1CCCCCCC(=O)O` (configuration not stated) [PGE1,11-DEOXY], the Ki in assay [1] was found to be 600 nM; in assay [2], 23 nM; in assay [3], 45 nM; in assay [4], 1.5 nM; at Prostacyclin receptor, 1000 nM.

For the compound `C[C@H](O)CCCC(O)C=CC1C(O)CC(=O)C1CC=CCCCC(=O)O` (some centres not stated) [PGE2,19R(OH)], in assay [5], the affinity, expressed as Ki, was 1000 nM.

For the compound `CCCCC[C@H](O)/C=C/C1C[C@H]2C[C@H](S2)[C@@H]1C/C=C\CCCC(=O)O` (some centres not stated) [STA2], the Ki in assay [2] was 350 nM; in assay [3], 220 nM; in assay [5], 97 nM; at Thromboxane A2 receptor, 14 nM; in assay [4] it was 23 nM.

As to `CCCCC[C@H](O)/C=C/C1[C@@H](C/C=C\CCCC(=O)O)[C@H]2CO[C@@H]1C2` (some centres not stated) [U46619], the Ki in assay [5] worked out at 1000 nM; on Thromboxane A2 receptor it was 67 nM.
